Reference: the Kinase Knowledgebase extract (Sharma et al. 2016)

Legend:
[1] = target: MAPK14 (human) (UniProt Q16539); assay: Inhibition of LPS-Induced TNF-a Production in THP1 Cells
[2] = system: MAPK14 (sprague-dawley rat); assay: Inhibition of LPS Induced TNF-alpha Production in Rats; settings: dose or concentration not given here
[3] = target: MAPK14 (UniProt Q16539); assay: p-38 Kinase Inhibition Assay
Sequence of MAPK14 (Q16539 whole entry, looked up): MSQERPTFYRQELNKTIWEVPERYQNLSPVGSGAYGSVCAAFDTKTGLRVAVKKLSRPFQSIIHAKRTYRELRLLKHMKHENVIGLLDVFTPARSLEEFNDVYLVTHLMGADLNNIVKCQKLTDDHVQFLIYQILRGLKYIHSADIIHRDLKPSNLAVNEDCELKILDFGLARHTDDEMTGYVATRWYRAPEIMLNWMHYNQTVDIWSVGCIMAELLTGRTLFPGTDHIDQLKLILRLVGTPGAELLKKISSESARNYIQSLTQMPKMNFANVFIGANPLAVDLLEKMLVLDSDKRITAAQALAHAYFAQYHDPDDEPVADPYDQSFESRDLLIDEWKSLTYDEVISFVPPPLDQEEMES

Sequence of MAPK14 (human) (Q16539 whole entry, looked up): as above

IC50 [1] [nM]	IC50 [3] [nM]	SMILES	inhibition [2] [%]
610	–	Nc1c(C(=O)c2cccc(OCCCN3CCCCC3)c2)cnn1-c1ccc(F)cc1	–
1040	–	Nc1c(C(=O)c2cccc(CCCN3CCOCC3)c2)cnn1-c1ccc(F)cc1	–
6300	–	Nc1c(C(=O)c2ccc(/C=C/CN3CCOCC3)cc2)cnn1-c1ccc(F)cc1	–
–	–	Nc1c(C(=O)c2cccc(C#CCN3CCOCC3)c2)cnn1-c1ccc(F)cc1	96
170	–	Nc1cccc(C(=O)c2cnn(-c3ccc(F)cc3)c2N)c1	–
830	–	N#CCCCOc1cccc(C(=O)c2cnn(-c3ccc(F)cc3)c2N)c1	–
170	1450	NC(=NO)c1cccc(C(=O)c2cnn(-c3ccc(F)cc3)c2N)c1	76
–	–	CNC(=O)COc1cccc(C(=O)c2cnn(-c3ccc(F)cc3)c2N)c1	75
140	–	Nc1c(C(=O)c2cccc(N3CCC(Cc4ccccc4)CC3)c2)cnn1-c1ccc(F)cc1	–
510	–	Nc1c(C(=O)c2cccc(CCS(N)(=O)=O)c2)cnn1-c1ccc(F)cc1	–
1770	–	Nc1c(C(=O)c2ccc(CCCO)cc2)cnn1-c1ccccc1	–
1620	–	Nc1c(C(=O)c2cccc(/C=C/S(N)(=O)=O)c2)cnn1-c1ccc(F)cc1	–
–	–	CN1CCN(CC#Cc2cccc(C(=O)c3cnn(-c4ccc(F)cc4)c3N)c2)CC1	86
–	–	CNCC#Cc1cccc(C(=O)c2cnn(-c3ccc(F)cc3)c2N)c1	86
770	–	Nc1c(C(=O)c2cccc(OCCN3CCOCC3)c2)cnn1-c1ccc(F)cc1	–
1260	–	Nc1c(C(=O)c2cccc(/C=C/CN3CCOCC3)c2)cnn1-c1ccc(F)cc1	–

SMILES	IC50 [1] [nM]	IC50 [3] [nM]	inhibition [2] [%]
CN1CCN(C(=O)COc2cccc(C(=O)c3cnn(-c4ccc(F)cc4)c3N)c2)CC1	690	–	–
